Data taken from the NIST ThermoML archive (doi:10.1016/j.fluid.2012.06.014).
± gives the expanded uncertainty stated by the source.

Settings: for viscosity / mass density: 101.33 kPa, Liquid; for viscosity: Capillary tube (Ostwald / Ubbelohde) method; for mass density: Vibrating tube method

Molecule `CCCCCCn1cc[n+](C)c1.N#C[B-](C#N)(C#N)C#N` [1-hexyl-3-methylimidazolium tetracyanoborate] has a viscosity (293.15 K) of 66.61 ± 0.82 mPa·s, a mass density (293.15 K) of 993.4 ± 0.2 kg/m3 and a surface tension liquid-gas (298.15 K, Pendant drop shape) of 41.1 ± 0.7 mN/m. The viscosity (298.15 K) was 49.8 ± 0.65 mPa·s, the mass density (298.15 K) was 989.8 ± 0.2 kg/m3 and the viscosity (303.15 K) was 38.92 ± 0.47 mPa·s. It also gave a mass density (303.15 K) of 986.2 ± 0.2 kg/m3, a viscosity (308.15 K) of 31.04 ± 0.37 mPa·s and a mass density (308.15 K) of 982.7 ± 0.2 kg/m3. For the same molecule, the viscosity (313.15 K) was 25.2 ± 0.3 mPa·s, the mass density (313.15 K) was 979.1 ± 0.2 kg/m3 and the viscosity (318.15 K) was 20.8 ± 0.26 mPa·s. The mass density (318.15 K) was 975.6 ± 0.2 kg/m3, the viscosity (323.15 K) was 17.41 ± 0.23 mPa·s and the mass density (323.15 K) was 972.1 ± 0.2 kg/m3. It also gave a viscosity (328.14 K) of 14.76 ± 0.21 mPa·s, a mass density (328.14 K) of 968.6 ± 0.2 kg/m3 and a viscosity (333.14 K) of 12.66 ± 0.2 mPa·s. It also gave a mass density (333.14 K) of 965.2 ± 0.2 kg/m3, a viscosity (338.14 K) of 10.97 ± 0.19 mPa·s and a mass density (338.14 K) of 961.7 ± 0.2 kg/m3. The viscosity (343.14 K) was 9.584 ± 0.18 mPa·s, the mass density (343.14 K) was 958.3 ± 0.2 kg/m3 and the viscosity (348.14 K) was 8.445 ± 0.17 mPa·s. It also gave a mass density (348.14 K) of 954.9 ± 0.2 kg/m3, a viscosity (353.15 K) of 7.497 ± 0.17 mPa·s and a mass density (353.15 K) of 951.5 ± 0.2 kg/m3. It also gave a viscosity (358.14 K) of 6.701 ± 0.17 mPa·s, a mass density (358.14 K) of 948.1 ± 0.2 kg/m3 and a viscosity (363.14 K) of 6.026 ± 0.17 mPa·s. For the same molecule, the mass density (363.14 K) was 944.8 ± 0.2 kg/m3.
